From patent publication US12258327B2, “5-membered heteroaryl-containing aminopyridine compounds as EGFR inhibitors” (YUHAN CORPORATION, priority 2021, dated 2025) come the findings set out here.

The target in one assay is EGFR wildtype (WT) (Homo sapiens, UniProt P00533). Briefly: Biochemical EGFR kinase assay (Lance Ultra TR-FRET), wildtype. In outline:
(§1)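 Kinase activity is measured by TR-FRET phosphopeptide detection. Compounds span 0.003 μM to 10 μM; the 1 h reaction at room temperature is quenched with EDTA, then labelled antibody (2 nM) is incubated 60 min before reading.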

A further assay deals with EGFR del19/C797S (Homo sapiens, UniProt P00533, C797S/DEL746-750). Briefly: Biochemical EGFR kinase assay (Lance Ultra TR-FRET), double mutant del19/C797S. The procedure, abridged:
as §1

In another assay the target is EGFR L858R/T790M/C797S (Homo sapiens, UniProt P00533, C797S/L858R/T790M). In words: Biochemical EGFR kinase assay (Lance Ultra TR-FRET), triple mutant L858R/T790M/C797S. The procedure, abridged:
as §1

The next assay has as its target EGFR del19/T790M/C797S (Homo sapiens, UniProt P00533, C797S/DEL746-750/T790M). In words: Biochemical EGFR kinase assay (Lance Ultra TR-FRET), triple mutant del19/T790M/C797S. The procedure, abridged:
as §1

A further assay deals with EGFR L858R/C797S (Homo sapiens, UniProt P00533, C797S/L858R). In words: Biochemical EGFR kinase assay (Lance Ultra TR-FRET), double mutant L858R/C797S. In outline: as §1
EGFR L858R/C797S, sequence (P00533 25-1210 C797S/L858R): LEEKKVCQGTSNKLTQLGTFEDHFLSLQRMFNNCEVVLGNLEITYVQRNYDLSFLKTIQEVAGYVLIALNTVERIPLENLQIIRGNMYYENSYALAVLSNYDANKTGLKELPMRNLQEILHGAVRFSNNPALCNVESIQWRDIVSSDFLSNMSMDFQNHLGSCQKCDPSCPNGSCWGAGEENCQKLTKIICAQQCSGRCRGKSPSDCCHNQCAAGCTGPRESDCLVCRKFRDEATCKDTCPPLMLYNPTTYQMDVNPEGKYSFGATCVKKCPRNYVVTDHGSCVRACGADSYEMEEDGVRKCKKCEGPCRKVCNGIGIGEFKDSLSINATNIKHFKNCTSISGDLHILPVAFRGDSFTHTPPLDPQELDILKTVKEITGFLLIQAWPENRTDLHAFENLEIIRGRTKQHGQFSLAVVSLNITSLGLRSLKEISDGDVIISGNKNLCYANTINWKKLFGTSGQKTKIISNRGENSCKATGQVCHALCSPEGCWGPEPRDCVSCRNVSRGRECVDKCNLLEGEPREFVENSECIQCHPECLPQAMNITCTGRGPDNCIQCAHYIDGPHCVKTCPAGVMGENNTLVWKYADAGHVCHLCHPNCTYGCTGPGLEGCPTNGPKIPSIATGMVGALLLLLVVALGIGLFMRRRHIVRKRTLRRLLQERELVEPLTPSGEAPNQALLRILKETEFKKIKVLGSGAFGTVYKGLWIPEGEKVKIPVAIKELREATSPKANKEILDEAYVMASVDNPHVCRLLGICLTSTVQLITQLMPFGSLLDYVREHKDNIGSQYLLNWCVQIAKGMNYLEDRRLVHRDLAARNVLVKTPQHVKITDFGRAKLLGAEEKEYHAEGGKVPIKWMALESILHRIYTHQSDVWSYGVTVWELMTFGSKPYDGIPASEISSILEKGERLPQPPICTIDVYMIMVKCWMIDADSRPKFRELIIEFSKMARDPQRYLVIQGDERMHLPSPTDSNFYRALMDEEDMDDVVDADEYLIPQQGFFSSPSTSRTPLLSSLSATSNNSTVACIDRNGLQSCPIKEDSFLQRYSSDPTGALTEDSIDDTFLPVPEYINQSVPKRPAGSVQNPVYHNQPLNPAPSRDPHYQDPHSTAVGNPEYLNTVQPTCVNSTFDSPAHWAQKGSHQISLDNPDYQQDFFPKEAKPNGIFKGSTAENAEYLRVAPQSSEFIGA
The mark [1] stands for this setting: IC50 WT (nM) 100 μM ATP, 100 μM ATP.
[2] abbreviates: Km ATP, read-out: IC50 WT (nM) Km ATP.
The mark [3] stands for this setting: IC50 del19/C797S (nM) 100 μM ATP, 100 μM ATP.
[4] abbreviates: Km ATP, read-out: IC50 del19/C797S (nM) Km ATP.
Setting [5] is: Km ATP, read-out: IC50 L858R/T790M/C797S (nM) Km ATP.
Where [6] appears, read: IC50 del19/T790M/C797S (nM) 100 μM ATP, 100 μM ATP.
[7] abbreviates: Km ATP, read-out: IC50 del19/T790M/C797S (nM) Km ATP.
The mark [8] stands for this setting: IC50 L858R/C797S (nM) 100 μM ATP, 100 μM ATP.
[9] abbreviates: Km ATP, read-out: IC50 L858R/C797S (nM) Km ATP.
Setting [10] is: IC50 L858R/T790M/C797S (nM) 100 μM ATP, 100 μM ATP.

Where two headings read alike, the source gives them in different places. Where only a bound is given, the exact number is not on record here.

EGFR del19/T790M/C797S, sequence (P00533 with tags, fused parts or gaps DEL746-750/T790M/C797S): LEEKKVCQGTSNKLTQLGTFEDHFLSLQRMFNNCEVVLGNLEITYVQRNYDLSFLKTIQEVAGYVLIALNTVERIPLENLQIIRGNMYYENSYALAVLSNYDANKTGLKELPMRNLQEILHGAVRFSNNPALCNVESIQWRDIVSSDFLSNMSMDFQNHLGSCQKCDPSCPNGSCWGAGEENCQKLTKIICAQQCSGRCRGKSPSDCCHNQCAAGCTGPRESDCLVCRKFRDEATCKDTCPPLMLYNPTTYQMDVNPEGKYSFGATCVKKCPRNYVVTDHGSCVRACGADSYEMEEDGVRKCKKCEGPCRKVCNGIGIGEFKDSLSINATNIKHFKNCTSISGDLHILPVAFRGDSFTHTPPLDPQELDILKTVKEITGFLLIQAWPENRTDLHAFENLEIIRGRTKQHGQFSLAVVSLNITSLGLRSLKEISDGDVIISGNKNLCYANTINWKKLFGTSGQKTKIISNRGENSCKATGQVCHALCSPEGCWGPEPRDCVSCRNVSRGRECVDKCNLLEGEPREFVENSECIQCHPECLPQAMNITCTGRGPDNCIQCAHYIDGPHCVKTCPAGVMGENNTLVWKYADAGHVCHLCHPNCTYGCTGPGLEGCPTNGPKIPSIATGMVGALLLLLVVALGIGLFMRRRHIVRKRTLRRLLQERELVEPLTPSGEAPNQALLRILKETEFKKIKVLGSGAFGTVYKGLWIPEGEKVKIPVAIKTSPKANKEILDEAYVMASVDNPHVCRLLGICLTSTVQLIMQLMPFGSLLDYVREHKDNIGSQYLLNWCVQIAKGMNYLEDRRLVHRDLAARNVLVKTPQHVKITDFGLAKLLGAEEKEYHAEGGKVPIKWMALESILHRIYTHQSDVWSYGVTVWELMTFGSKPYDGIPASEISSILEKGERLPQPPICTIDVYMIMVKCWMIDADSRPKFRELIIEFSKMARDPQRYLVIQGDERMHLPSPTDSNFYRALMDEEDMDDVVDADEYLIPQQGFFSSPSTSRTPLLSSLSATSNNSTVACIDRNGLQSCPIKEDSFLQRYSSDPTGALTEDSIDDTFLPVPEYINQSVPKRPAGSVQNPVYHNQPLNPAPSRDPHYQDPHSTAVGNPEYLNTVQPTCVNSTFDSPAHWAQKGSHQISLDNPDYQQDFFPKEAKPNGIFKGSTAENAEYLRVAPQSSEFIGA
EGFR L858R/T790M/C797S, sequence (P00533 25-1210 T790M/C797S/L858R): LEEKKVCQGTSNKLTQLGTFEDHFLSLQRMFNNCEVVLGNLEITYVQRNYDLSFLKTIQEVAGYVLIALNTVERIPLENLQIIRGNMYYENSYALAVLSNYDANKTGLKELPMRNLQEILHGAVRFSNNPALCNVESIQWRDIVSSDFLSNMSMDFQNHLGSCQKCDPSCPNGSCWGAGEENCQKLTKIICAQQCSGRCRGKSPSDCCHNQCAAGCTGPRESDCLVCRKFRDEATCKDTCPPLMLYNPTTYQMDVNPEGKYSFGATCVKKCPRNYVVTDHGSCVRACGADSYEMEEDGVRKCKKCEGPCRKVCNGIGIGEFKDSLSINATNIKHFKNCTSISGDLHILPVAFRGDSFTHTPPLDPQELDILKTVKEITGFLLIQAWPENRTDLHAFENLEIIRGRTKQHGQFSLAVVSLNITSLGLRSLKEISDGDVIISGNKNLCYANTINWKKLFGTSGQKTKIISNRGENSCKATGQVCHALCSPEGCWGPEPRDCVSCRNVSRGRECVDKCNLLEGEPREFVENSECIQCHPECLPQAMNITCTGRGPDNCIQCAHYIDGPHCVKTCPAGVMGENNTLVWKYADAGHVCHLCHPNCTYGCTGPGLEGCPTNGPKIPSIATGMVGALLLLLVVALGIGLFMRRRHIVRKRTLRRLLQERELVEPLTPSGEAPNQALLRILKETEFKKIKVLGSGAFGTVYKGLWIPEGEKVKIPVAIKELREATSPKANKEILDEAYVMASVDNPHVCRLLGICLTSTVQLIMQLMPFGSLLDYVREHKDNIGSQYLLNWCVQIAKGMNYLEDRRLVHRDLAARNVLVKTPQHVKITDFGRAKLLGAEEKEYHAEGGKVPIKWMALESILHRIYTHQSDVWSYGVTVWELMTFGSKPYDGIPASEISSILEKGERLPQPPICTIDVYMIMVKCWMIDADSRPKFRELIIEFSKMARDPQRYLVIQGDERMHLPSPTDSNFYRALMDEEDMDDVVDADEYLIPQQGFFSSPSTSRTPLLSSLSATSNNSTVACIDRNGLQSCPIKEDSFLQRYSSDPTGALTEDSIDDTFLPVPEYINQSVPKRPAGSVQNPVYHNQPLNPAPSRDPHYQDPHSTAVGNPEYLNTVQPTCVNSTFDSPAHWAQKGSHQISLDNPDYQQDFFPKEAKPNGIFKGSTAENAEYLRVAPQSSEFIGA
EGFR wildtype (WT), sequence (P00533 25-1210): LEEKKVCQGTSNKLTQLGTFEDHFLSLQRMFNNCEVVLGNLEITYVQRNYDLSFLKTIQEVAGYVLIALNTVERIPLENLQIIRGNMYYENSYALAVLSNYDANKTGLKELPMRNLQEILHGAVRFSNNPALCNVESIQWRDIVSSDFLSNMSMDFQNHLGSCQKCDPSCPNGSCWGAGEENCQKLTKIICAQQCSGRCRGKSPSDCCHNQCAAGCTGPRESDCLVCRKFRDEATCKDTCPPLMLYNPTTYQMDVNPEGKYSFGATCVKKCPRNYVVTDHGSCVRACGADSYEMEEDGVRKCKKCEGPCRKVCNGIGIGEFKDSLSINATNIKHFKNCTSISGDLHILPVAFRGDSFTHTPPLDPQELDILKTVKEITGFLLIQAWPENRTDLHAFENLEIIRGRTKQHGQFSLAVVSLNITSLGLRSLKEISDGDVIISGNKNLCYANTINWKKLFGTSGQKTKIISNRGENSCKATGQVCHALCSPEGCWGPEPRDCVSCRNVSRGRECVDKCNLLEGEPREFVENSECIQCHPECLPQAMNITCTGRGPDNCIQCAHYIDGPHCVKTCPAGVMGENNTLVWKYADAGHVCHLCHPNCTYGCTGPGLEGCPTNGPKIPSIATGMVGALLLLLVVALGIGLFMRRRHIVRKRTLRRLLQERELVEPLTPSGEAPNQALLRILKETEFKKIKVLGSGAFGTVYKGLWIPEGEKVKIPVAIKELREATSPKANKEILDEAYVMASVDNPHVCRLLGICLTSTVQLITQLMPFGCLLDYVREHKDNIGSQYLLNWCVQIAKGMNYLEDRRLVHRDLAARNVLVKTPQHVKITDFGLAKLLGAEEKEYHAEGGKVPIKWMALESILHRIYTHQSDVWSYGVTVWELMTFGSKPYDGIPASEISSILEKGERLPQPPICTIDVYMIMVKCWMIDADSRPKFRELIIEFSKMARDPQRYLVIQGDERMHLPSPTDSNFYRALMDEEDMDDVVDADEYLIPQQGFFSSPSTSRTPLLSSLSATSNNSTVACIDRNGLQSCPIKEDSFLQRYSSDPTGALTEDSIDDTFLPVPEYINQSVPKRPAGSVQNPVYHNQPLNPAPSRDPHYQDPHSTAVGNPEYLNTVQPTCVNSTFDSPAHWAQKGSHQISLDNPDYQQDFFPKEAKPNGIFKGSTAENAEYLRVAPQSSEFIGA

Consider `O=S(=O)(C1CC1)n1cc(-c2nccc(Nc3cc(N[C@H]4CC[C@](O)(C(F)(F)F)CC4)c(-c4ccn(C(F)F)n4)cn3)n2)cn1` [Example 11, (1s,4s)-4-((2-((2-(1-(Cyclopropylsulfonyl)-1H-pyrazol-4-yl)pyrimidin-4-yl)amino)-5-(1-(difluoromethyl)-1H-pyrazol-3-yl)pyridin-4-yl)amino)-1-(trifluoromethyl)cyclohexan-1-ol], for which the IC50 on EGFR wildtype (WT) (read-out: IC50 WT (nM) 100 μM ATP, 100 μM ATP) was above 10000 nM; at EGFR del19/C797S (read-out: IC50 del19/C797S (nM) 100 μM ATP, 100 μM ATP), 553 nM; at EGFR L858R/T790M/C797S (read-out: IC50 L858R/T790M/C797S (nM) 100 μM ATP, 100 μM ATP) it was 21.8 nM; at EGFR del19/T790M/C797S (read-out: IC50 del19/T790M/C797S (nM) 100 μM ATP, 100 μM ATP) it was 8.6 nM; on EGFR L858R/C797S (read-out: IC50 L858R/C797S (nM) 100 μM ATP, 100 μM ATP), 267 nM.
As to `O=S(=O)(C1CC1)n1cc(-c2nccc(Nc3cc(N[C@H]4CC[C@H](O)C4)c(-c4ccn(C(F)F)n4)cn3)n2)cn1` [Example 20, (1S,3S)-3-((2-((2-(1-(Cyclopropylsulfonyl)-1H-pyrazol-4-yl)pyrimidin-4-yl)amino)-5-(1-(difluoromethyl)-1H-pyrazol-3-yl)pyridin-4-yl)amino)cyclopentan-1-ol], the IC50 at EGFR wildtype (WT) (setting [1]) was above 10000 nM; at EGFR wildtype (WT) (setting [2]), 21.1 nM; at EGFR del19/C797S (setting [3]), 3.4 nM; at EGFR del19/C797S (setting [4]) it was 1 nM; at EGFR L858R/T790M/C797S (setting [5]), 0.2 nM; on EGFR del19/T790M/C797S (setting [6]), 0.9 nM. The figures for the IC50 on EGFR del19/T790M/C797S (setting [7]), at EGFR L858R/C797S (setting [8]) and on EGFR L858R/C797S (setting [9]) were 0.3 nM, 51.9 nM and 3.1 nM, respectively.
For `C[C@]1(O)CC[C@@H](Nc2cc(Nc3ccnc(Nc4ccnn4CC(F)F)n3)ncc2-c2ccn(C(F)F)n2)CC1` [Example 155, (1s,4s)-4-((2-((2-((1-(2,2-Difluoroethyl)-1H-pyrazol-5-yl)amino)pyrimidin-4-yl)amino)-5-(1-(difluoromethyl)-1H-pyrazol-3-yl)pyridin-4-yl)amino)-1-methylcyclohexan-1-ol], the IC50 on EGFR wildtype (WT) (setting [2]) turned out to be 1100 nM; on EGFR del19/C797S (setting [4]) it was 162 nM; at EGFR L858R/T790M/C797S (setting [5]) it was 2.8 nM; at EGFR del19/T790M/C797S (setting [7]) it was 4.2 nM; at EGFR L858R/C797S (setting [9]), 139 nM.
Turning to `CN[C@H]1CC[C@@H](Nc2cc(Nc3ccnc(-c4cnn(S(=O)(=O)C5CC5)c4)n3)ncc2-c2ccco2)CC1` [Example 87, N^2-(2-(1-(Cyclopropylsulfonyl)-1H-pyrazol-4-yl)pyrimidin-4-yl)-5-(furan-2-yl)-N^4-((1s,4s)-4-(methylamino)cyclohexyl)pyridine-2,4-diamine], the IC50 against EGFR wildtype (WT) (setting [1]) was above 10000 nM; against EGFR del19/C797S (setting [3]), 6.9 nM; at EGFR L858R/T790M/C797S (setting [10]) it was 0.7 nM; at EGFR del19/T790M/C797S (setting [6]), 0.2 nM; against EGFR L858R/C797S (setting [8]), 31.4 nM.
For the molecule `Cn1ccc(-c2cnc(Nc3ccnc(-c4cnn(S(=O)(=O)C5CC5)c4)n3)cc2N[C@H]2CC[C@H](CCO)CC2)n1` [Example 134, 2-((1r,4r)-4-((2-((2-(1-(Cyclopropylsulfonyl)-1H-pyrazol-4-yl)pyrimidin-4-yl)amino)-5-(1-methyl-1H-pyrazol-3-yl)pyridin-4-yl)amino)cyclohexyl)ethan-1-ol], the IC50 on EGFR wildtype (WT) (setting [1]) was above 10000 nM; on EGFR wildtype (WT) (setting [2]) it was 4.4 nM; against EGFR del19/C797S (setting [3]), 0.8 nM; on EGFR del19/C797S (setting [4]) it was 0.6 nM; at EGFR L858R/T790M/C797S (setting [10]), 0.5 nM; at EGFR L858R/T790M/C797S (setting [5]), 0.1 nM. The IC50 was determined as 0.5 nM on EGFR del19/T790M/C797S (setting [6]), 0.2 nM at EGFR del19/T790M/C797S (setting [7]), 9.2 nM at EGFR L858R/C797S (setting [8]) and 0.4 nM at EGFR L858R/C797S (setting [9]).
`Cn1nc(-c2cnc(Nc3ccnc(-c4cnn(S(=O)(=O)C5CC5)c4)n3)cc2N[C@H]2CC[C@@H](C(C)(C)O)CC2)cc1C(C)(C)O` [Example 298, 2-(3-(6-((2-(1-(Cyclopropylsulfonyl)-1H-pyrazol-4-yl)pyrimidin-4-yl)amino)-4-(((1s,4s)-4-(2-hydroxypropan-2-yl)cyclohexyl)amino)pyridin-3-yl)-1-methyl-1H-pyrazol-5-yl)propan-2-ol]: the IC50 against EGFR wildtype (WT) (setting [1]) stood at 504 nM; at EGFR wildtype (WT) (setting [2]), 1.6 nM; on EGFR del19/C797S (setting [3]) it was 0.8 nM; at EGFR del19/C797S (setting [4]), 1 nM; at EGFR L858R/T790M/C797S (setting [10]) it was 1 nM; on EGFR L858R/T790M/C797S (setting [5]), 0.3 nM. The results for the IC50 on EGFR del19/T790M/C797S (setting [6]), on EGFR L858R/C797S (setting [8]) and on EGFR L858R/C797S (setting [9]) were 1.8 nM, 1.7 nM and 1.1 nM, respectively.
Turning to `CN(C)CCNC1CCC(Nc2cc(Nc3ccnc(-c4cnn(S(=O)(=O)C5CC5)c4)n3)ncc2-c2ccn(C(F)F)n2)CC1` (stereo not drawn) [Example 99, N^2-(2-(1-(cyclopropylsulfonyl)-1H-pyrazol-4-yl)pyrimidin-4-yl)-5-(1-(difluoromethyl)-1H-pyrazol-3-yl)-N4-(4-((2-(dimethylamino)ethyl)amino)cyclohexyl)pyridine-2,4-diamine], the IC50 at EGFR wildtype (WT) (setting [1]) amounted to 612 nM; against EGFR del19/C797S (setting [3]) it was 1.7 nM; on EGFR L858R/T790M/C797S (setting [10]), 0.8 nM; on EGFR del19/T790M/C797S (setting [6]), 0.5 nM; against EGFR L858R/C797S (setting [8]), 4.8 nM.
In the case of `O=S(=O)(C1CC1)n1cc(-c2nccc(Nc3cc(N[C@H]4CC[C@@H](NCCF)CC4)c(-c4csc(N5CCOCC5)n4)cn3)n2)cn1` [Example 126, N^2-(2-(1-(Cyclopropylsulfonyl)-1H-pyrazol-4-yl)pyrimidin-4-yl)-N^4-((1s,4s)-4-((2-fluoroethyl)amino)cyclohexyl)-5-(2-morpholinothiazol-4-yl)pyridine-2,4-diamine], the IC50 was above 10000 nM against EGFR wildtype (WT) (setting [1]); 112 nM at EGFR wildtype (WT) (setting [2]); 30.3 nM on EGFR del19/C797S (setting [3]); 21 nM at EGFR del19/C797S (setting [4]); 1.3 nM on EGFR L858R/T790M/C797S (setting [10]); 0.4 nM on EGFR L858R/T790M/C797S (setting [5]). The values for the IC50 against EGFR del19/T790M/C797S (setting [6]), on EGFR del19/T790M/C797S (setting [7]) and against EGFR L858R/C797S (setting [8]) were 0.8 nM, 0.7 nM and 379 nM, respectively.
